According to patent publication US5756463A, “Use of insulin and IGF-1” (Pharmacia & Upjohn AB, priority 1994, dated 1998):
“Also recorded” adds a separate entry of the source.

Experiments:
Male Sprague-Dawley rats [1] = assay: Example 1: body weight gain and nitrogen retention in dexamethasone-infused rats, 8-day subcutaneous mini-pump infusion; format: in vivo, rat; details: 8 days
Protocol: On day zero the rats were anaesthetized intraperitoneally with 0.4 ml per 100 g body weight of a mixture of Rompun (20 mg.ml^-1), Ketalar (50 mg.ml^-1) and Saline (0.9%) in 1:2:3 volume proportions. The hair on the back of the rats was shaved off and the exposed skin carefully washed with 0.05% chlorhexidine (Pharmacia, Stockholm, Sweden) and 0.4 % jodopax (Molnlycke, Goteborg, Sweden), both being diluted in 70% alcohol. Two mutually parallel incisions, each of 15 mm in length, were then made along the dorsal midline. The incisions penetrated the epidermis, dermis and subcutaneous muscle but left the deep fascia intact. Two subcutaneous pockets were made on both sides of the incisions by separating the subcutaneous muscle from the deep fascia. One (Exp. I) or two (Exp. 2) mini-pumps were implanted in each pocket. The wounds were closed with sutures 4-0 (Johnson & Johnson). Osmotic mini-pumps (Alzet 2001, Alza Corporation, Palo Alto, USA) releasing 1 μl.h^-1 for 8 days were used for continuous delivery of hormones and Dex to the animals. The pumps were filled to a volume of 0.22 ml with solutions of rhGH (14.4 mg.ml^-1, Genotropin®, Pharmacia), […] (20 mg.ml^-1, Igef®, Pharmacia, Kabi Peptide Hormones, Stockholm, Sweden), insulin (1.57 mg/ml, Actrapid®, Novo, Copenhagen, Denmark), Dex (1.04 mg.ml^-1, Decadron, Merck Sharp & Dohme International, […], USA) or Saline (0.9%). Two (Example 1) or four (Example 2) pumps combined as described above were implanted in each rat. Implantation of the pumps was performed under strictly aseptic conditions. Total feed intake was registered throughout the full 8 day experimental period. Urine and faeces were collected daily, pooled and kept at -20° C. until analysed. Excreta was collected by housing the animals in individual metabolism cages that were specially designed for the separation of urine and faeces. In order to inhibit urease-activity in the urine, 1 ml of 5% sulphuric acid was pipetted every morning in the collection vessels. The 24 hour collections of urine were pooled individually for each treatment period and immediately frozen after the collection. Similarly, the samples of faeces were also pooled individually for each treatment period and kept frozen (-20° C.) until analysis. Urea in serum was determined spectrophotometrically by using the Urea UV Uni-Kit I (Roche) with an autoanalyzer (Cobas Mira, Roche Co, Basel, Switzerland). Urea values were expressed in mmol/l. The total nitrogen content in urine was determined with the aid of the Antek Pyro-Chemiluminiscence Nitrogen System. The apparatus used comprised the […] nitrogen analyser with Liquid Auto Sampler 736-2 and a pyrolysis tube with a ceramic […] Instruments Inc., Houston, Tex., U.S.A.). The frozen urinary samples were thawed and diluted 1:100 with 0.1 M HCl and then analysed. The urinary nitrogen values were then calculated as mg nitrogen excreted. Total nitrogen in faeces was determined by an established Kjeldahl method (Kjeltec System, Tecator AB, Halsingborg, Sweden). The frozen faecal samples were thawed and dried in an oven at 60° C. overnight. The weight of the dried sample was noted and the sample then ground. 0.20 g of the milled faecal sample was mixed in a Kjeldahl digestion tube with 10.0 ml of concentrated sulphuric acid. 2.0 ml of a 30% solution of H202 (30% Perhydrol, Merck, Darmstadt, Germany) was added and mixed carefully. One catalyst tablet (Kjeltabs CA, Thompson & Capper, Runcom, Cheshire, UK) was added to each sample. The mixture was digested at […] for at least one hour or until complete bleaching of the sample was achieved. […] The faecal nitrogen values were calculated as mg nitrogen excreted. Data were subjected to a one-way analysis of variance in which the effect of treatment was considered the prime source of variation. Calculations were executed by the GLM procedure of the SAS program (SAS 1985). […]

Male Sprague-Dawley rats [2] = assay: Example 2: feed intake, nitrogen digestibility and nitrogen retention in dexamethasone-infused rats, 8-day mini-pump infusion of peptide combinations; format: in vivo, rat; details: 8 days; for relative nitrogen retention (retained N/digested N×100): Dex 26 μg/day with saline or with insulin 39, rhGH 360, rhIGF-I 500 μg/day, mean, pooled SE, saline alone 38.7%; for nitrogen retention, effect compared with Dex without peptide: Dex 26 μg/day plus peptide
Protocol: On day zero the rats were anaesthetized intraperitoneally with 0.4 ml per 100 g body weight of a mixture of Rompun (20 mg.ml^-1), Ketalar (50 mg.ml^-1) and Saline (0.9%) in 1:2:3 volume proportions. The hair on the back of the rats was shaved off and the exposed skin carefully washed with 0.05% chlorhexidine (Pharmacia, Stockholm, Sweden) and 0.4 % jodopax (Molnlycke, Goteborg, Sweden), both being diluted in 70% alcohol.
Two mutually parallel incisions, each of 15 mm in length, were then made along the dorsal midline. The incisions penetrated the epidermis, dermis and subcutaneous muscle but left the deep fascia intact. Two subcutaneous pockets were made on both sides of the incisions by separating the subcutaneous muscle from the deep fascia. One (Exp. I) or two (Exp. 2) mini-pumps were implanted in each pocket. The wounds were closed with sutures 4-0 (Johnson & Johnson).
Osmotic mini-pumps (Alzet 2001, Alza Corporation, Palo Alto, USA) releasing 1 μl.h^-1 for 8 days were used for continuous delivery of hormones and Dex to the animals. The pumps were filled to a volume of 0.22 ml with solutions of rhGH (14.4 mg.ml^-1, Genotropin®, Pharmacia), rhlGF-I (20 mg.ml^-1, Igef®, Pharmacia, Kabi Peptide Hormones, Stockholm, Sweden), insulin (1.57 mg/ml, Actrapid®, Novo, Copenhagen, Denmark), Dex (1.04 mg.ml^-1, Decadron, Merck Sharp & Dohme International, Rathway, USA) or Saline (0.9%). Two (Example 1) or four (Example 2) pumps combined as described above were implanted in each rat. Implantation of the pumps was performed under strictly aseptic conditions.
Total feed intake was registered throughout the full 8 day experimental period. Urine and faeces were collected daily, pooled and kept at -20° C. until analysed. Excreta was collected by housing the animals in individual metabolism cages that were specially designed for the separation of urine and faeces. In order to inhibit urease-activity in the urine, 1 ml of 5% sulphuric acid was pipetted every morning in the collection vessels. The 24 hour collections of urine were pooled individually for each treatment period and immediately frozen after the collection. Similarly, the samples of faeces were also pooled individually for each treatment period and kept frozen (-20° C.) until analysis.
Urea in serum was determined spectrophotometrically by using the Urea UV Uni-Kit I (Roche) with an autoanalyzer (Cobas Mira, Roche Co, Basel, Switzerland). Urea values were expressed in mmol/l. The total nitrogen content in urine was determined with the aid of the Antek Pyro-Chemiluminiscence Nitrogen System. The apparatus used comprised the Antek 7000N nitrogen analyser with Liquid Auto Sampler 736-2 and a pyrolysis tube with a ceramic liner (Antek Instruments Inc., Houston, Tex., U.S.A.). The frozen urinary samples were thawed and diluted 1:100 with 0.1 M HCl and then analysed. The urinary nitrogen values were then calculated as mg nitrogen excreted.
Total nitrogen in faeces was determined by an established Kjeldahl method (Kjeltec System, Tecator AB, Halsingborg, Sweden). The frozen faecal samples were thawed and dried in an oven at 60° C. overnight. The weight of the dried sample was noted and the sample then ground. 0.20 g of the milled faecal sample was mixed in a Kjeldahl digestion tube with 10.0 ml of concentrated sulphuric acid. 2.0 ml of a 30% solution of H202 (30% Perhydrol, Merck, Darmstadt, Germany) was added and mixed carefully. One catalyst tablet (Kjeltabs CA, Thompson & Capper, Runcom, Cheshire, UK) was added to each sample. The mixture was digested at […] for at least one hour or until complete bleaching of the sample was achieved. The nitrogen content of this solution was determined after alkalinization by steam distillation of the ammonia and automated titration of the distillate. The faecal nitrogen values were calculated as mg nitrogen excreted.
Data were subjected to a one-way analysis of variance in which the effect of treatment was considered the prime source of variation.

[3] = Dex 26, 13 or 6.5 μg/day (every Dex dose), rhGH 360 μg/day or rhIGF-I 500 μg/day s.c. mini-pump, compared with saline

Compound	body weight gain (Male Sprague-Dawley rats [1]; [3])	retention of nitrogen (Male Sprague-Dawley rats [1]; Dex 26, 13 or 6.5 μg/day, rhIGF-I 500 μg/day, compared with saline and rhGH)	relative nitrogen retention (retained N/digested N×100) (Male Sprague-Dawley rats [2]) [%]	nitrogen retention, effect compared with Dex without peptide (Male Sprague-Dawley rats [2])	body weight gain, effect of Dex dose (Male Sprague-Dawley rats [1]; Dex 6.5, 13, 26 μg/day)	reduction of feed intake (Male Sprague-Dawley rats [2]; Dex 26 μg/day)	body weight gain (Male Sprague-Dawley rats [1]; Dex 26, 13 or 6.5 μg/day (every Dex dose), rhGH 360 μg/day or rhIGF-I 500 μg/day s.c. mini-pump, compared with saline, listed as hGH)	body weight gain (Male Sprague-Dawley rats [1]; medium and high Dex infusion dose (13 and 26 μg/day), rhGH 360 μg/day)
recombinant human insulin-like growth factor I [rhIGF-I]	significantly (p<0.05) higher weight gain in comparison with saline; also recorded: significantly (p<0.05) increased	significantly (p<0.05) higher	23.0	–	–	–	–	–
insulin	–	–	11.9	without effect	–	–	–	–
C[C@@H]1C[C@H]2[C@@H]3CCC4=CC(=O)C=C[C@]4(C)[C@@]3(F)[C@@H](O)C[C@]2(C)[C@@]1(O)C(=O)CO [Dex, dexamethasone, reference compound]	–	–	7.2	–	general decrease with increased Dex dose	approximately 20%	–	–
recombinant human growth hormone [rhGH]	opposite effect	–	3.8	without effect	–	–	opposite effect (p<0.05)	negative values for body weight gain
